# Assay results reported in patent US20240262806A1, “INHIBITORS OF NLRP3” (PTC THERAPEUTICS, INC., priority 2021, published 2024).
# System: NLRP3 inflammasome
# Assay: IL-1β Secretion Assay (NLRP3-dependent IL-1β secretion in PMA-differentiated THP-1 cells, nigericin activation, HTRF)
# Format: cell-based
# Conditions: Homo sapiens, THP-1, THP-1 cells, 100 ng/mL PMA 24 h, compound 20 h, 2.5 μM Nigericin 3 h; read-out: IC50 IL-1β Inhibition
# Description: Cells were washed 1× with 100 ul PBS and replaced with fresh RPMI+5% FBS. Compounds were serial diluted in DMSO with 3 fold dilution for a total of 7 concentrations.
# Compounds, once produced and prepared according to the present invention, can be assessed in variety of assays to characterize their activities. […] IC50 values of IL1β inhibition were calculated from the plot of percentage of inhibition versus the inhibitor concentration by a logistics fit. TABLE I depict examples of compounds according to generic Formulae I. Data which is <1 nM is listed as *****; data 1-10 nM is listed as ****; data 10-100 nM is listed as ***, data 100-300 nM is listed as **, data >300 nM is listed as *.
row,SMILES,IC50 [µM]
1,CN1CCCC[C@@H](Nc2nnc(-c3ccc(C(F)(F)F)cc3O)c3ccncc23)C1 [Compound I-187],< 0.001
2,Cc1cc(O)c(-c2nnc(N[C@@H]3CCCN(C)C3)c3ccccc23)cc1C [Compound I-41],0.001 to 0.01
3,COc1cc(C(F)F)ccc1-c1nnc(N[C@@H]2CCCN(C)C2)c2cnccc12 [Compound I-234],0.01 to 0.1
4,C[C@]1(O)C[C@@H](Nc2nnc(-c3c(O)cc(Cl)cc3F)c3cccn23)C1 [Compound I-434],0.001 to 0.01
5,Cc1cccc(-c2nnc(N[C@@H]3CCCN(C)C3)c3cnccc23)c1O [Compound I-82],< 0.001
6,CN1CCC[C@H](Oc2nnc(-c3ccc(C(F)(F)F)cc3O)c3ccccc23)C1 [Compound I-22],0.1 to 0.3
7,CN1CCC[C@@H](Nc2nnc(-c3cccc(Cl)c3O)c3ccncc23)C1 [Compound I-76],< 0.001
8,"Oc1cc(Cl)ccc1-c1nnc(N[C@@H]2CCCOC2)n2cncc12 [Compound I-518, (R)-5-Chloro-2-(4-((tetrahydro-2H-pyran-3-yl)amino)imidazo[1,5-d][1,2,4]triazin-1-yl)phenol]",0.001 to 0.01
9,FC(F)Oc1cc(C(F)(F)F)ccc1-c1nnc(N[C@@H]2CCCOC2)n2cccc12 [Compound I-376],0.001 to 0.01
10,C[C@]1(O)C[C@@H](Nc2nnc(-c3ccc(C(F)(F)F)cc3O)c3cncn23)C1 [Compound I-527],0.001 to 0.01
11,Cn1cc(Nc2nnc(-c3ccc(C(F)(F)F)cc3O)c3ccncc23)cn1 [Compound I-180],0.001 to 0.01
12,CCN1CCC[C@@H](Nc2nnc(-c3ccc(Br)cc3O)c3cncn23)C1 [Compound I-628],< 0.001
13,CCN1CCC[C@@H](Nc2nnc(-c3ccc(OC)cc3O)c3cccn23)C1 [Compound I-377],0.001 to 0.01
14,CN1CCC[C@@H](Nc2nnc(-c3c(O)cc(C4CC4)cc3F)c3ccncc23)C1 [Compound I-196],< 0.001
15,CCN1CCC[C@@H](Nc2nnc(-c3c(O)cc(C(F)(F)F)cc3F)c3cccn23)C1 [Compound I-414],< 0.001
16,CCN1CCC[C@@H](Nc2nnc(-c3ccc(OC(F)(F)F)cc3O)c3cc(C)nn23)C1 [Compound I-584],< 0.001
17,"O=C(O)CN1CCC[C@@H](Nc2nnc(-c3ccc(C(F)(F)F)cc3O)c3ccccc23)C1 [Compound I-98, (R)-2-(3-((4-(2-Hydroxy-4-(trifluoromethyl)phenyl)phthalazin-1-yl)amino)piperidin-1-yl)acetic acid]",< 0.001
18,"CN1C[C@H](O)C[C@@H](Nc2nnc(-c3c(O)cc(C4CC4)cc3F)c3cccn23)C1 [Compound I-387, (3R,5R)-5-[[1-(4-Cyclopropyl-2-fluoro-6-hydroxy-phenyl)pyrrolo[1,2-d][1,2,4]triazin-4-yl]amino]-1-methyl-piperidin-3-ol]",0.01 to 0.1
19,CC(C)c1ccc(-c2nnc(N[C@@H]3CCCN(C)C3)c3cnccc23)c(C(C)C)c1 [Compound I-207],0.001 to 0.01
20,COc1cccc(-c2nnc(N[C@@H]3CCCN(C)C3)c3cnccc23)c1O [Compound I-73],< 0.001

row,SMILES,IC50 [µM]
1,CN1CCC[C@@H](Nc2nnc(-c3ncc(Cl)cc3O)c3ccncc23)C1 [Compound I-172],0.001 to 0.01
2,C[C@H](O)CNc1nnc(-c2ccc(C(F)(F)F)cc2O)c2cccn12 [Compound I-473],0.01 to 0.1
3,Cc1ccc(-c2nnc(N[C@@H]3CCCN(C)C3)n3cccc23)c(O)c1 [Compound I-337],0.001 to 0.01
4,CN1CCC(Nc2nnc(-c3ccc(C(F)(F)F)cc3O)c3ccncc23)CC12CC2 (stereo not shown) [Compound I-212],0.01 to 0.1
5,CC#Cc1ccc(-c2nnc(N[C@@H]3CCCN(C)C3)c3ccccc23)c(O)c1 [Compound I-227],< 0.001
6,CN1CCC[C@@H](Nc2nnc(-c3ccc(C(F)(F)F)cc3O)c3ccncc23)C1 [Compound I-7],< 0.001
7,Oc1cc(C(F)(F)F)ccc1-c1nnc(N[C@@H]2CCCN(C3CCOC3)C2)c2cnccc12 (stereo partly shown) [Compound I-281],< 0.001
8,Cc1cc(O)c(-c2nnc(N[C@@H]3CCCN(C)C3)c3ccccc23)cc1F [Compound I-18],0.001 to 0.01
9,"CN1CCC[C@@H](Nc2nnc(-c3ccc(Cl)cc3OC(F)F)c3cccn23)C1 [Compound I-356, 1-[4-Chloro-2-(difluoromethoxy)phenyl]-N-[(3R)-1-methyl-3-piperidyl]pyrrolo[1,2-d][1,2,4]triazin-4-amine]",0.001 to 0.01
10,CCN1CCC[C@@H](Nc2nnc(-c3c(C)cc(C)cc3O)c3cccn23)C1 [Compound I-636],< 0.001
11,Cc1cccc(-c2nnc(N[C@@H]3CCCN(C)C3)c3cnccc23)c1OC(F)F [Compound I-168],0.01 to 0.1
12,Oc1cc(C(F)(F)F)ccc1-c1nnc(NCC2CCN2)c2ccccc12 (stereo not shown) [Compound I-150],0.01 to 0.1
13,CN1CCCC(Cc2nnc(-c3ccc(C(F)(F)F)cc3O)c3ccncc23)C1 (stereo not shown) [Compound I-567],0.01 to 0.1
14,"OCCN1CCC[C@@H](Nc2nnc(-c3ccc(C(F)(F)F)cc3O)c3ccccc23)C1 [Compound I-48, 2-[4-[[(3R)-1-(2-Hydroxyethyl)-3-piperidyl]amino]phthalazin-1-yl]-5-(trifluoromethyl)phenol]",< 0.001
15,CN1CCC[C@@H](Nc2nnc(-c3ccc(C(F)(F)F)cc3F)c3ccccc23)C1 [Compound I-127],0.001 to 0.01
16,C[C@H](O)CNc1nnc(-c2ccc(C(F)(F)F)cc2O)c2c(F)ccn12 [Compound I-595],0.01 to 0.1
17,"O[C@H]1CCC[C@@H](Nc2nnc(-c3ccc(C(F)(F)F)cc3OC(F)F)c3cccn23)C1 [Compound I-361, (1S,3R)-3-[[1-[2-(Difluoromethoxy)-4-(trifluoromethyl)phenyl]pyrrolo[1,2-d][1,2,4]triazin-4-yl]amino]cyclohexanol]",0.001 to 0.01
18,O[C@H]1CCC[C@@H](Nc2nnc(-c3ccc(C(F)(F)F)cc3OC(F)F)c3c(F)ccn23)C1 [Compound I-524],0.01 to 0.1
19,"CN1CCC[C@@H](Nc2nnc(-c3ccc(C(F)(F)F)cc3O)c3cnn(C)c23)C1 [Compound I-146, 2-[1-Methyl-7-[[(3R)-1-methyl-3-piperidyl]amino]pyrazolo[3,4-d]pyridazin-4-yl]-5-(trifluoromethyl)phenol]",< 0.001
20,C[C@@H](O)CNc1nnc(-c2ccc(C3CC3)cc2O)c2cccn12 [Compound I-586],0.1 to 0.3

row,SMILES,IC50 [µM]
1,CCN1CCC[C@@H](Nc2nnc(-c3ccc(Cl)cc3O)c3cncn23)C1 [Compound I-442],< 0.001
2,"CN1CCC[C@@H](Nc2nnc(-c3ccc(C(F)(F)F)cc3O)c3c2CCCCC3)C1 [Compound I-36, (R)-2-(4-((1-Methylpiperidin-3-yl)amino)-6,7,8,9-tetrahydro-5H-cyclohepta[d]pyridazin-1-yl)-5-(trifluoromethyl)phenol]",< 0.001
3,CN1CCC(CNc2nnc(-c3ccc(C(F)(F)F)cc3O)c3ccncc23)CC1 [Compound I-302],0.001 to 0.01
4,"CN1CCC[C@@H](Nc2nnc(-c3ccc(C(F)(F)F)cc3OC(F)F)c3cccn23)C1 [Compound I-322, 1-[2-(Difluoromethoxy)-4-(trifluoromethyl)phenyl]-N-[(3R)-1-methyl-3-piperidyl]pyrrolo[1,2-d][1,2,4]triazin-4-amine]",< 0.001
5,CN1CCC[C@@H](Nc2nnc(-c3ccc(C(F)(F)F)cc3C(N)=O)c3ccncc23)C1 [Compound I-182],0.01 to 0.1
6,CC(C)N1CCC[C@H](Nc2nnc(-c3ccc(Cl)cc3O)c3cncn23)C1 [Compound I-553],< 0.001
7,"CN1C[C@H](O)C[C@@H](Nc2nnc(-c3ccc(C(F)(F)F)cc3OC(F)F)c3cccn23)C1 [Compound I-385, (3R,5R)-5-[[1-[2-(Difluoromethoxy)-4-(trifluoromethyl)phenyl]pyrrolo[1,2-d][1,2,4]triazin-4-yl]amino]-1-methyl-piperidin-3-ol]",0.1 to 0.3
8,Cc1cc(O)c(-c2nnc(N[C@@H]3CCCN(CCOC(F)F)C3)n3cccc23)c(F)c1 [Compound I-344],< 0.001
9,COc1cc(C(F)(F)F)ccc1-c1nnc(N[C@@H]2CCCN(CCOC(F)F)C2)c2cnccc12 [Compound I-276],0.01 to 0.1
10,Oc1cc(Cl)ccc1-c1nnc(N[C@@H]2CCCN(CC(F)F)C2)n2cncc12 [Compound I-559],0.001 to 0.01
11,CN1CC=C(c2ccc(-c3nnc(N[C@@H]4CCCN(C)C4)c4ccccc34)c(O)c2)C1 [Compound I-58],0.001 to 0.01
12,CCN1CCC[C@@H](Nc2nnc(-c3c(O)cc(OC)cc3F)c3cc(C)nn23)C1 [Compound I-555],< 0.001
13,OCCN1CCC[C@@H](Nc2nnc(-c3ccc(C(F)(F)F)cc3O)c3cccn23)C1 [Compound I-353],0.001 to 0.01
14,Oc1cc(Cl)ccc1-c1nnc(N[C@H]2CCOC2)n2cncc12 [Compound I-580],0.001 to 0.01
15,"Cc1noc2c(-c3ccc(C(F)(F)F)cc3O)nnc(N[C@@H]3CCCN(CCO)C3)c12 [Compound I-256, 2-[3-methyl-4-[[(3R)-1-(2-hydroxyethyl)-3-piperidyl]amino]isoxazolo[4,5-d]pyridazin-7-yl]-5-(trifluoromethyl)phenol]",0.01 to 0.1
16,CN1CCC[C@@H](Nc2nnc(-c3ccc(Cl)cc3C(F)F)c3ccncc23)C1 [Compound I-239],0.001 to 0.01
17,"Oc1cc(C(F)(F)F)ccc1-c1nnc(N[C@@H]2CCCN(C3CC3)C2)c2cnccc12 [Compound I-215, 2-[4-[[(3R)-1-cyclopropyl-3-piperidyl]amino]pyrido[3,4-d]pyridazin-1-yl]-5-(trifluoromethyl)phenol]",< 0.001
18,CN1CCC[C@@H](Nc2nnc(-c3ccc(-c4ncccn4)cc3O)c3ccncc23)C1 [Compound I-200],0.001 to 0.01
